Blank lines part the entries; values can stand above or below the compound they belong to.
Legend:
[1] = molecular target: T1, human HDAC3/SMRT heterodimer (Homo sapiens, UniProt O15379); test: Human HDAC enzyme inhibitor Fluor-de-Lys assay, HDAC3/SMRT; assay type: biochemical; conditions: HDAC3/SMRT 0.3 nM enzyme, 20 μM substrate BML-KI104, 10 μM IP4, 3 h pre-incubation, 60 min reaction; read-out: HDAC3_IC50
T1 construct: Full length human HDAC3-FLAG was expressed in HEK-293F cells along with SMRT; host or cells: HEK-293F cells
Source text: (§1) Recombinant human HDAC8 (catalog number BML-SE145-0100) and HDAC10 (catalog number BML-SE559-0050) enzymes, HDAC substrates BML-KI104 and BML-KI178, and HDAC developer solutions BML-KI105 and BML-KI176 were purchased from Enzo Life Sciences (Farmingdale, NY). Recombinant human HDAC5 and HDAC11 were purchased from BPS Bioscience (San Diego, CA)(catalog numbers 50045 and 50021). Substrate Boc-Lys(TFA)-AMC was obtained from Bachem (Bupendorf, Switzerland) (catalog number 1-1985). HDAC inhibitor suberoylanilide hydroxamic acid (SAHA) was obtained from Indofine (Hillsborough Township, NJ) and trichostatin A (TSA) was obtained from Sigma-Aldrich (St. Louis, MO). […] HEPES pH 8.0 was obtained from Boston BioProducts (Ashland, MA), Tween-20 from Fisher Scientific (Hampton, NH)(catalog number BP337), TCEP from Calbiochem and 7.5% bovine serum albumin (BSA) from Life Technologies (Carlsbad, CA) (catalog number 15260037). 384-well, black assay plates were obtained from Corning (Corning, NY) (catalog number 3575).
(§2) Recombinant human HDAC1, HDAC2, and HDAC3/SMRT heterodimer were prepared by Merck Research Laboratories. […] The eluted protein was then passed over an anti-HDAC1 immunoaffinity column to remove any complexes containing HDAC1. […]
(§3) The histone deacetylase activities of HDAC1, HDAC2, HDAC3, HDAC6, and HDAC8 were measured in modified Fluor-de-Lys assays in 384-well format. In this assay, HDAC enzymes are initially incubated with an ε-acetyl (or -trifluoroacetyl)-L-lysine-containing substrate with a C-terminal amide having aminomethylcoumarin as the amine component. HDACs cleave the ε-acetyl group, rendering the resulting product susceptible to AMC cleavage by trypsin. The released AMC is then detected by its fluorescence.
(§4) The HDAC 1, 2 assays employed buffer A, which contained 20 mM HEPES, pH 8.0, 1 mM MgCl2, 137 mM NaCl, 2.7 mM KCl, 0.05% BSA. The HDAC3/SMRT assay employed buffer B, consisting of 20 mM HEPES, pH 8.0, 1 mM MgCl2, 50 mM NaCl, 2.7 mM KCl, 0.05% BSA, 0.005% Tween 20, and 10 μM IP4. The HDAC6 assay employed buffer C, consisting of 20 mM HEPES, pH 8.0, 1 mM MgCl2, 137 mM NaCl, 2.7 mM KCl, 0.5 mM TCEP (Calbiochem) and 0.05% BSA. The HDAC8 assay employed buffer D, consisting of 20 mM HEPES, pH 8.0, 1 mM MgCl2, 100 mM NaCl, 20 mM KCl, 0.1% n-octyl-β-D-glucoside (Anatrace, Maumee, OH) and 0.05% BSA. All steps were performed at room temperature (23° C.). The assay was performed by pre-incubating serial dilutions of test compounds with the target HDAC prior to initiation with substrate. Each compound was titrated in a 10-point dose response, using a 1:3 fold dilution scheme, with 0.15 ul of solution added by ECHO555 to the plate, followed by the addition of 20 μl of the appropriate HDAC isoform diluted in appropriate assay buffer. […] Final conditions used for each assay were: 1. HDAC 1, 0.3 nM total enzyme, 20 μM substrate BML-K1104; 2. HDAC 2, 1.5 nM total enzyme, 40 μM substrate BML-K1104; 3. HDAC 3/SMRT, 0.3 nM total enzyme, 20 μM substrate BML-K1104; 4. HDAC 6, 1.3 nM total enzyme, 2.5 μM substrate BML-K1104; 5. HDAC 8, 1.3 nM total enzyme, 200 μM substrate BML-K1178; the final high dose of test compound was 30 μM. […] The reactions were stopped and developed by addition of 30 ul of HDAC developer solution containing a saturating level of HDAC inhibitor as follows: 1.

[2] = molecular target: T2, human HDAC2 (Homo sapiens, UniProt Q92769); test: Human HDAC enzyme inhibitor Fluor-de-Lys assay, HDAC2; assay type: biochemical; conditions: 1.5 nM enzyme, 40 μM substrate BML-KI104, 3 h pre-incubation, 60 min reaction; read-out: HDAC2_IC50
T2 construct: Full length human HDAC2-FLAG was expressed in baculovirus infected Sf9 cells; host or cells: baculovirus infected Sf9 cells
Source text: as §1, §2, §3, §4

T1 sequence (O15379 whole entry): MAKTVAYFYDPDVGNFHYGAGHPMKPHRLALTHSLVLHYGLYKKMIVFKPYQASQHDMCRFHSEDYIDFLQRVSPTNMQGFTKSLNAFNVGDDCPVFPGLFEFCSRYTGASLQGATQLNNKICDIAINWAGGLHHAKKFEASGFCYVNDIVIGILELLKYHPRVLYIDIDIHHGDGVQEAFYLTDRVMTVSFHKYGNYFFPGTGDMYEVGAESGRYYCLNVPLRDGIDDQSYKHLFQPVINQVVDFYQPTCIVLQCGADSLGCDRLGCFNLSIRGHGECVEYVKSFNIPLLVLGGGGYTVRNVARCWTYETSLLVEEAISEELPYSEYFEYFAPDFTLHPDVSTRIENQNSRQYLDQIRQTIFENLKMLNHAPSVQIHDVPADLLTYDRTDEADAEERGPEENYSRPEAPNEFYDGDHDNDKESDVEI
T1 sequence (Q9Y618 1-899 partner limits assumed): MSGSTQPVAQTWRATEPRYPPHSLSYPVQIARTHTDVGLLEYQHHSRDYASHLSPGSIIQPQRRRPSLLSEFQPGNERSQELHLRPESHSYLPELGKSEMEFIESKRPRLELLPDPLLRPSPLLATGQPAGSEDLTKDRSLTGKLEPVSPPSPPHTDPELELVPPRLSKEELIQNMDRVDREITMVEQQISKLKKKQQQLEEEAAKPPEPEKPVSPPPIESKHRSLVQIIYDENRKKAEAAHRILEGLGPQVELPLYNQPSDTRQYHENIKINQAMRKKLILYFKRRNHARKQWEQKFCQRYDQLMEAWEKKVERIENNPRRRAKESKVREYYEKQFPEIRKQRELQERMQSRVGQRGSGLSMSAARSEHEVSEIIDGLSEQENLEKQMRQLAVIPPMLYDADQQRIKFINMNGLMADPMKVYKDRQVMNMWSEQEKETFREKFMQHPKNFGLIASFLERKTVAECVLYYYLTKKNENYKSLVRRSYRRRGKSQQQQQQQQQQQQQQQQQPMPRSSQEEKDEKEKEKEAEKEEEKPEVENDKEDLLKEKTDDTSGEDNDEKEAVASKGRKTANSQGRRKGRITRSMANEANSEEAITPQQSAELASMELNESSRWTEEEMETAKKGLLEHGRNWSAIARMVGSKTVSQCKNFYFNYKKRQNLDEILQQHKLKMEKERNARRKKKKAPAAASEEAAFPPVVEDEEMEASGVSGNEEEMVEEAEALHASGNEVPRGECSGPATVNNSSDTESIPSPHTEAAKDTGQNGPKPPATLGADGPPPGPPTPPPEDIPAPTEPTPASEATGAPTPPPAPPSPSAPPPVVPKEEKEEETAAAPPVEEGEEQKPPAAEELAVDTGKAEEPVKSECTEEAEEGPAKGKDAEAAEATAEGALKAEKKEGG
T2 sequence (Q92769 whole entry): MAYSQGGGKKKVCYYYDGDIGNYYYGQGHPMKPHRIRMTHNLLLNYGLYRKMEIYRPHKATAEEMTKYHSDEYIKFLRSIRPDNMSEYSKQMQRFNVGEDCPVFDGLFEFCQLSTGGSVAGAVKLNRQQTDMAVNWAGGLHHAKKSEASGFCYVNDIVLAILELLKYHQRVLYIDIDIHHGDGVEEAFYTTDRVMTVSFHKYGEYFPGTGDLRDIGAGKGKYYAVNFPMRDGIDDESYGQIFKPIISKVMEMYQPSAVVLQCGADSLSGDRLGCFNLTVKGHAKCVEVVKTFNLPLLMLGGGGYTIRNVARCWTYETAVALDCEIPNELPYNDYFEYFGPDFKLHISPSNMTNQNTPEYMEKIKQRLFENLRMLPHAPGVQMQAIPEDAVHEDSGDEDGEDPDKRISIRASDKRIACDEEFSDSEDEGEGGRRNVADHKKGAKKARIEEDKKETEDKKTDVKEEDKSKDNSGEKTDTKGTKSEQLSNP

SMILES: COc1nc2ccccc2cc1-c1cnc([C@@H](N)COCCCC(=O)c2ncco2)[nH]1 [Compound 1, (R)-4-(2-amino-2-(5-(2-methoxyquinolin-3-yl)-1H-imidazol-2-yl)ethoxy)-1-(oxazol-2-yl)butan-1-one]
IC50 [1]: 185 nM
IC50 [2]: 1000 nM

IC50 [1]: 272 nM
IC50 [2]: ≥ 900 nM
SMILES: N[C@@H](COCCCC(=O)c1ccon1)c1ncc(-c2ccccc2F)[nH]1 [Compound 2, (R)-4-(2-amino-2-(5-(2-fluorophenyl)-1H-imidazol-2-yl)ethoxy)-1-(isoxazol-3-yl)butan-1-one]

IC50 [2]: 1160 nM
SMILES: CCC(=O)CCCOC[C@H](NC(=O)c1cncs1)c1ncc(-c2cc3ccccc3nc2OC)[nH]1 [Compound 5, N-{(1R)-1-[5-(2-methoxyquinolin-3-yl)-1H-imidazol-2-yl]-2-[(4-oxohexyl)oxy]ethyl}-1,3-thiazole-5-carboxamide]

SMILES: CCC(=O)CCCOC[C@H](NC(=O)C12CCN(CC1)CC2)c1ncc(-c2cc3ccccc3nc2OC)[nH]1 [Compound 6, N-{(1R)-1-[5-(2-methoxyquinolin-3-yl)-1H-imidazol-2-yl]-2-[(4-oxohexyl)oxy]ethyl}-1-azabicyclo[2.2.2]octane-4-carboxamide]
IC50 [1]: 87.3 nM
IC50 [2]: 925 nM

SMILES: CNC(=O)C(=O)CCCOC[C@H](NC(=O)c1cncs1)c1ncc(-c2cc3ccccc3nc2OC)[nH]1 [Compound 8, N-[(1R)-1-[5-(2-methoxyquinolin-3-yl)-1H-imidazol-2-yl]-2-{[5-(methylamino)-4,5-dioxopentyl]oxy}ethyl]-1,3-thiazole-5-carboxamide]
IC50 [1]: 1.5 nM
IC50 [2]: 2.5 nM

SMILES: CNC(=O)C(=O)CCCOC[C@H](NC(=O)C12CCN(CC1)CC2)c1ncc(-c2cc3ccccc3nc2OC)[nH]1 [Compound 9, N-[(1R)-1-[5-(2-methoxyquinolin-3-yl)-1H-imidazol-2-yl]-2-{[5-(methylamino)-4,5-dioxopentyl]oxy}ethyl]-1-azabicyclo[2.2.2]octane-4-carboxamide]
IC50 [1]: 1.5 nM
IC50 [2]: 1.5 nM

SMILES: COc1nc2ccccc2cc1-c1cnc([C@H](COCCCC(=O)c2ncco2)NC(=O)c2cncs2)[nH]1 [Compound 10, N-{(1R)-1-[5-(2-methoxyquinolin-3-yl)-1H-imidazol-2-yl]-2-[4-(1,3-oxazol-2-yl)-4-oxobutoxy]ethyl}-1,3-thiazole-5-carboxamide]
IC50 [1]: 3.6 nM
IC50 [2]: 25.9 nM

SMILES: COc1nc2ccccc2cc1-c1cnc([C@H](COCCCC(=O)c2ncco2)NC(=O)[C@H]2CC23CCN(C)CC3)[nH]1 [Compound 11, (1S)-N-{(1R)-1-[5-(2-methoxyquinolin-3-yl)-1H-imidazol-2-yl]-2-[4-(1,3-oxazol-2-yl)-4-oxobutoxy]ethyl}-6-methyl-6-azaspiro[2.5]octane-1-carboxamide]
IC50 [1]: 5 nM
IC50 [2]: 9.7 nM

SMILES: COc1nc2ccccc2cc1-c1cnc([C@H](COCCCC(=O)c2ncco2)NC(=O)C23CCN(CC2)CC3)[nH]1 [Compound 12, N-{(1R)-1-[5-(2-methoxyquinolin-3-yl)-1H-imidazol-2-yl]-2-[4-(1,3-oxazol-2-yl)-4-oxobutoxy]ethyl}-1-azabicyclo[2.2.2]octane-4-carboxamide]
IC50 [1]: 7.7 nM
IC50 [2]: 29.7 nM

SMILES: COc1nc2ccccc2cc1-c1cnc([C@H](COCCCC(=O)c2ncco2)NC(=O)CN(C)C)[nH]1 [Compound 13, N-{(1R)-1-[5-(2-methoxyquinolin-3-yl)-1H-imidazol-2-yl]-2-[4-(1,3-oxazol-2-yl)-4-oxobutoxy]ethyl}-N~2~,N~2~- dimethylglycinamide]
IC50 [1]: 3.8 nM
IC50 [2]: 14.4 nM

SMILES: COc1nc2ccccc2cc1-c1cnc([C@H](COCCCC(=O)c2ccon2)NC(=O)CN(C)C)[nH]1 [Compound 14, N-{(1R)-2-(4-isoxazol-3-yl-4-oxobutoxy)-1-[5-(2-methoxyquinolin-3-yl)-1H-imidazol-2-yl]ethyl}-N~2~,N~2~- dimethylglycinamide]
IC50 [1]: 2.2 nM
IC50 [2]: 3.2 nM

SMILES: CN1CC(C(=O)N[C@@H](COCCCC(=O)c2ccon2)c2ncc(-c3ccccc3F)[nH]2)C1 [Compound 15, N-[(1R)-1-[5-(2-fluorophenyl)-1H-imidazol-2-yl]-2-(4-isoxazol-3-yl-4-oxobutoxy)ethyl]-1-methylazetidine-3-carboxamide]
IC50 [1]: 1.6 nM
IC50 [2]: 31.3 nM

SMILES: CN1CC(C(=O)N[C@@H](COCCCC(=O)c2ccon2)c2[nH]c(-c3ccc(F)cc3)nc2Cl)C1 [Compound 16, N-[(1R)-1-[4-chloro-2-(4-fluorophenyl)-1H-imidazol-5-yl]-2-(4-isoxazol-3-yl-4-oxobutoxy)ethyl]-1-methylazetidine-3-carboxamide]
IC50 [1]: 9.2 nM
IC50 [2]: 56.7 nM

SMILES: CN(C)CC(=O)N[C@@H](COCCCC(=O)c1ccon1)c1[nH]c(-c2ccc(F)cc2)nc1Cl [Compound 17, N-[(1R)-1-[4-chloro-2-(4-fluorophenyl)-1H-imidazol-5-yl]-2-(4-isoxazol-3-yl-4-oxobutoxy)ethyl]-N~2~,N~2~- dimethylglycinamide]
IC50 [1]: 17 nM
IC50 [2]: 106 nM

SMILES: CN1CCC2(CC1)C[C@@H]2C(=O)N[C@@H](COCCCC(=O)c1ccon1)c1[nH]c(-c2ccc(F)cc2)nc1Cl [Compound 18, (1S)-N-[(1R)-1-[4-chloro-2-(4-fluorophenyl)-1H-imidazol-5-yl]-2-(4-isoxazol-3-yl-4-oxobutoxy)ethyl]-6-methyl-6-azaspiro[2.5]octane-1-carboxamide]
IC50 [1]: 1.3 nM
IC50 [2]: 8.1 nM

SMILES: COc1cc2nc(C)ccc2cc1-c1cnc([C@H](COCCCC(=O)c2cc(C)on2)NC(=O)C2CN(C)C2)[nH]1 [Compound 19, N-{(1R)-1-[5-(7-methoxy-2-methylquinolin-6-yl)-1H-imidazol-2-yl]-2-[4-(5-methylisoxazol-3-yl)-4-oxobutoxy]ethyl}-1-methylazetidine-3-carboxamide]
IC50 [1]: 1.3 nM
IC50 [2]: 8 nM

SMILES: COc1cc2nc(C)ccc2cc1-c1cnc([C@H](COCCCC(=O)c2cc(C)on2)NC(=O)[C@H]2CC23CCN(C)CC3)[nH]1 [Compound 20, (1S)-N-{(1R)-1-[5-(7-methoxy-2-methylquinolin-6-yl)-1H-imidazol-2-yl]-2-[4-(5-methylisoxazol-3-yl)-4-oxobutoxy]ethyl}-6-methyl-6-azaspiro[2.5]octane-1-carboxamide]
IC50 [1]: 0.8 nM
IC50 [2]: 3.8 nM

SMILES: Cc1ccc2cc(-c3cnc([C@H](CSCCCC(=O)c4ncco4)NC(=O)[C@H]4CC45CCN(C)CC5)[nH]3)ccc2n1 [Compound 21, (1S)-6-methyl-N-[(1R)-1-[5-(2-methylquinolin-6-yl)-1H-imidazol-2-yl]-2-{[4-(1,3-oxazol-2-yl)-4-oxobutyl]sulfanyl}ethyl]-6-azaspiro[2.5]octane-1-carboxamide]
IC50 [1]: 1.5 nM
IC50 [2]: 2.9 nM

Source: patent US12365674B2, “Inhibitors of histone deacetylase useful for the treatment or prevention of HIV infection” (Merck Sharp & Dohme LLC, priority 2019, dated 2025)
